Experimental data published in patent publication US9884832B2 (priority 2011, dated 2018).

Biological target: AM2 S31 (wild-type serine at position 31 in the M2 protein), influenza virus A/Udorn/72 (Influenza A virus, UniProt P0DOF5)
Assay: cell-based
Conditions: 100 uM; Xenopus oocytes; activity range class; read-out: S31 OOcyte Inhibition at 100 uM (%)

Sequence of AM2 S31 (wild-type serine at position 31 in the M2 protein), influenza virus A/Udorn/72 (P0DOF5 whole entry, looked up): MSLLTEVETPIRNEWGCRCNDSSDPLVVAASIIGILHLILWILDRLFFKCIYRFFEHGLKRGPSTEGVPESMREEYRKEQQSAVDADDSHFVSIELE

Row | Structure (SMILES) | inhibition at 100 µM [%]
1 | COc1ccccc1COc1ccc(CNC23CC4CC(CC(C4)C2)C3)cc1 [Example 15a, Adamantan-1-yl-[4-(2-methoxy-benzyloxy)-benzyl]-amine] | 0 to 30
2 | CC(=O)c1ccc(CNC23CC4CC(CC(C4)C2)C3)cc1 [Example 44a] | 0 to 30
3 | OC12CC3CC(C1)CC(NCc1ccc(Cl)s1)(C3)C2 [Example 189a, 3-[(5-Chloro-thiophen-2-ylmethyl)-amino]adamantan-1-ol] | 0 to 30
4 | c1c[nH]c(CNC23CC4CC(CC(C4)C2)C3)c1 [Example 72a, Adamantan-1-yl-(1H-pyrrol-2-ylmethyl)-amine] | 31 to 95
5 | COc1ccc(-c2nnc(CNC34CC5CC(CC(C5)C3)C4)o2)cc1 [Example 127a, N-((5-(4-methoxyphenyl)-1,3,4-oxadiazol-2-yl)methyl)adamantan-1-amine] | 0 to 30
6 | Cc1ccc(-c2cc(CNC34CC5CC(CC(C5)C3)C4)no2)cc1 [Example 120a, N-((5-(p-tolyl)isoxazol-3-yl)methyl)adamantan-1-amine] | 0 to 30
7 | Cc1cccc2nc(CNC34CC5CC(CC(C5)C3)C4)[nH]c12 [Example 184a, Adamantan-1-yl-(7-methyl-1H-benzoimidazol-2-ylmethyl)-amine] | 0 to 30
8 | CC(C)c1csc(CNC23CC4CC(CC(C4)C2)C3)n1 [Example 84a, N-((4-isopropylthiazol-2-yl)methyl)adamantan-1-amine] | 0 to 30
9 | Cc1ncc(CN(Cc2cnc(C)s2)C23CC4CC(CC(C4)C2)C3)s1 [Example 202a, N,N-bis((2-methylthiazol-5-yl)methyl)adamantan-1-amine] | 0 to 30
10 | c1cc(CNC23CC4CC(CC(C4)C2)C3)cc(-c2ccco2)c1 [Example 30a, N-(3-(Furan-2-yl)benzyl)adamantan-1-amine] | 0 to 30
11 | Brc1ccc(CNC23CC4CC(CC(C4)C2)C3)[nH]1 [Example 88a, Adamantan-1-yl-(5-bromo-1H-pyrrol-2-ylmethyl)-amine] | 31 to 95
12 | c1csc(CNC23CC4CC(CC(C4)C2)C3)c1 [Example 70a, Adamantan-1-yl-thiophen-2-ylmethyl-amine] | 31 to 95
13 | Oc1cc(-c2cccs2)ccc1CNC12CC3CC(CC(C3)C1)C2 [Example 49a] | 0 to 30
14 | Nc1ncc(CNC23CC4CC(CC(C4)C2)C3)s1 [Example 93a, 5-((adamantan-1-ylamino)methyl)thiazol-2-amine] | 31 to 95
15 | c1cc(-c2ccc(CNC34CC5CC(CC(C5)C3)C4)cn2)cs1 [Example 59a, N-((6-(thiophen-3-yl)pyridin-3-yl)methyl)adamantan-1-amine] | 0 to 30
16 | Oc1cccc2ccc(CNC34CC5CC(CC(C5)C3)C4)nc12 [Example 65a, 2-((adamantan-1-ylamino)methyl)quinolin-8-ol] | 31 to 95
17 | c1cc(CNC23CC4CC(CC(C4)C2)C3)co1 [Example 66a, Adamantan-1-yl-furan-3-ylmethyl-amine] | 31 to 95
18 | c1cc(C2CCCCC2)ccc1CNC12CC3CC(CC(C3)C1)C2 [Example 10a, Adamantan-1-yl-(4-cyclohexyl-benzyl)-amine] | 0 to 30
19 | c1ccc(-c2nc(CNC34CC5CC(CC(C5)C3)C4)c[nH]2)cc1 [Example 114a, N-((2-phenyl-1H-imidazol-4-yl)methyl)adamantan-1-amine] | 31 to 95
20 | c1cc2cn[nH]c2cc1CNC12CC3CC(CC(C3)C1)C2 [Example 43a, N-((1H-indazol-6-yl)methyl)adamantan-1-amine] | 31 to 95
21 | c1ccc(C2=NOC(CNC34CC5CC(CC(C5)C3)C4)C2)cc1 (stereo not shown) [Example 167a, N-((3-phenyl-4,5-dihydroisoxazol-5-yl)methyl)adamantan-1-amine] | 0 to 30
22 | Clc1ccc(COc2ccc(CNC34CC5CC(CC(C5)C3)C4)cc2)cc1 [Example 16a, Adamantan-1-yl-[4-(4-chloro-benzyloxy)-benzyl]-amine] | 31 to 95
23 | c1cc(-c2cc(CNC34CC5CC(CC(C5)C3)C4)no2)cs1 [Example 150a, Adamantan-1-yl-(5-thiophen-3-yl-isoxazol-3-ylmethyl)-amine] | 0 to 30
24 | C[Si](C)(C)c1ccc(CNC23CC4CC(CC(O)(C4)C2)C3)cc1 [Example 193a, (1s,3r,5R,7S)-3-((4-(trimethylsilyl)benzyl)amino)adamantan-1-ol] | 0 to 30
25 | c1cc(-c2ccc(CNC34CC5CC(CC(C5)C3)C4)s2)[nH]n1 [Example 158a, N-((5-(1H-pyrazol-5-yl)thiophen-2-yl)methyl)adamantan-1-amine] | 0 to 30
26 | CC(C)(C)c1cc(CNC23CC4CC(CC(C4)C2)C3)[nH]n1 [Example 101a, N-((3-(tert-butyl)-1H-pyrazol-5-yl)methyl)adamantan-1-amine] | 0 to 30
27 | CC(C)n1cc(CNC23CC4CC(CC(C4)C2)C3)cn1 [Example 85a, N-((1-isopropyl-1H-pyrazol-4-yl)methyl)adamantan-1-amine] | 0 to 30
28 | c1csc(-c2ccc(CNC34CC5CC(CC(C5)C3)C4)cc2)c1 [Example 29a, N-(4-(Thiophen-2-yl)benzyl)adamantan-1-amine methanesulfonate] | 0 to 30

Same assay, conditions: Table 1; 100 uM; Xenopus oocytes, pH 5.5, -20 mV; read-out: S31 OOcyte Inhibition at 100 uM (%)

Row | Structure (SMILES) | inhibition at 100 µM [%]
29 | O=[N+]([O-])c1cc(CNC23CC4CC(CC(C4)C2)C3)ccc1O [Example 52, 4-(Adamantan-1-ylaminomethyl)-2-nitro-phenol] | 31 to 95
30 | Oc1ccc(CNC2C3CC4CC(C3)CC2C4)cc1 (stereo not shown) [Example 99, 4-(Adamantan-2-ylaminomethyl)-phenol] | 31 to 95
31 | O=[N+]([O-])c1ccccc1CNC12CC3CC(CC(C3)C1)C2 [Example 30, Adamantan-1-yl-(2-nitro-benzyl)-amine] | 31 to 95
32 | c1cc2sc(CNC34CC5CC(CC(C5)C3)C4)cc2s1 [Example 81, Adamantan-1-yl-thieno[3,2-b]thiophen-2-ylmethyl-amine] | 31 to 95
33 | COC(=O)C(Cc1cnc[nH]1)NCC12CC3CC(CC(C3)C1)C2 (stereo not shown) [Example 3, 2-[(Adamantan-1-ylmethyl)-amino]-3-(3H-imidazol-4-yl)-propionic acid methyl ester] | 0 to 30
34 | CSc1ccc(CNC2C3CC4CC(C3)CC2C4)cc1 (stereo not shown) [Example 103, Adamantan-2-yl-(4-methylsulfanyl-benzyl)-amine] | 0 to 30
35 | Oc1ccc(CN2CC3CC4CC(C3)CC2C4)c(O)c1 [Example 116, 4-(4-Aza-tricyclo[4.3.1.13,8]undec-4-ylmethyl)-benzene-1,3-diol] | 31 to 95
36 | COc1cc(F)c(CNC23CC4CC(CC(C4)C2)C3)c(F)c1 [Example 67, Adamantan-1-yl-(2,6-difluoro-4-methoxy-benzyl)-amine] | 31 to 95
37 | c1cc2[nH]c(CNC34CC5CC(CC(C5)C3)C4)cc2s1 [Example 80, Adamantan-1-yl-(4H-thieno[3,2-b]pyrrol-5-ylmethyl)-amine] | 31 to 95
38 | Oc1c(CNC23CC4CC(CC(C4)C2)C3)ccc2ccccc12 [Example 97, 2-(Adamantan-1-ylaminomethyl)-naphthalen-1-ol] | 31 to 95
39 | Oc1ccc(CNC23CC4CC(CC(C4)C2)C3)c(O)c1O [Example 65, 4-(Adamantan-1-ylaminomethyl)-benzene-1,2,3-triol] | 0 to 30
40 | COc1ccc(CN(C)C23CC4CC(CC(C4)C2)C3)cc1 [Example 32, Adamantan-1-yl-(4-methoxy-benzyl)-methyl-amine] | 31 to 95
41 | N=C(Nc1ccc(O)cc1)C12CC3CC(CC(C3)C1)C2 [Example 5] | 31 to 95

Same assay, conditions: Table 3; 100 uM; Xenopus oocytes, pH 5.5, -20 mV; read-out: S31 OOcyte Inhibition at 100 uM (%)

Row | Structure (SMILES) | inhibition at 100 µM [%]
42 | c1cc2nc(CNC34CC5CC(CC(C5)C3)C4)sc2s1 [Example 77b, Adamantan-1-yl-thieno[3,2-d]thiazol-2-ylmethyl-amine] | 0 to 30
43 | COc1ccccc1-c1nc(CNC23CC4CC(CC(C4)C2)C3)no1 [Example 15b, N-((5-(2-methoxyphenyl)-1,2,4-oxadiazol-3-yl)methyl)adamantan-1-amine] | 0 to 30
44 | COc1ccc(-c2noc(CNC34CC5CC(CC(C5)C3)C4)n2)cc1OC [Example 35b, N-((3-(3,4-dimethoxyphenyl)-1,2,4-oxadiazol-5-yl)methyl)adamantan-1-amine] | 0 to 30
45 | CSC(C)(C)Cc1cc(CNC23CC4CC(CC(C4)C2)C3)no1 [Example 46b, N-((5-(2-methyl-2-(methylthio)propyl)isoxazol-3-yl)methyl)adamantan-1-amine] | 0 to 30
46 | COc1ccc2nc(CNC34CC5CC(CC(C5)C3)C4)[nH]c2c1 [Example 79b, Adamantan-1-yl-(6-methoxy-1H-benzoimidazol-2-ylmethyl)-amine] | 0 to 30
47 | CSc1ccc(-c2cc(CNC34CC5CC(CC(C5)C3)C4)no2)cc1 [Example 37b, N-((5-(4-(methylthio)phenyl)isoxazol-3-yl)methyl)adamantan-1-amine] | 0 to 30
48 | Cn1cc(CNC23CC4CC(CC(C4)C2)C3)nn1 [Example 18b, N-((1-methyl-1H-1,2,3-triazol-4-yl)methyl)adamantan-1-amine] | 0 to 30
49 | CC(C)c1cc(CNC23CC4CC(CC(O)(C4)C2)C3)no1 [Example 85b, (1s,3r,5R,7S)-3-(((5-isopropylisoxazol-3-yl)methyl)amino)adamantan-1-61] | 0 to 30
50 | O=C(CNC12CC3CC(CC(C3)C1)C2)c1cccs1 [Example 87b, 2-(adamantan-1-ylamino)-1-(thiophen-2-yl)ethanone] | 31 to 95
51 | CCSc1ncc(CNC23CC4CC(CC(C4)C2)C3)cn1 [Example 56b, N-((2-(ethylthio)pyrimidin-5-yl)methyl)adamantan-1-amine] | 0 to 30

Same assay, conditions: pH 5.5, read-out: S31 OOcyte Inhibition at 100 uM (%)

Row | Structure (SMILES) | inhibition at 100 µM [%]
52 | Oc1ccccc1CNC12CC3CC(CC(C3)C1)C2 [Example 28, 2-(Adamantan-1-ylaminomethyl)-phenol] | 31 to 95
